Measurements as given in patent publication US20150018403A1, “FLUORENE-AMIDE COMPOUNDS AND PHARMACEUTICAL USE THEREOF” (JAPAN TOBACCO INC., priority 2013, published 2015).

What was measured:
[1] = target: T1, human PDHK2 (hPDHK2) (Homo sapiens, UniProt Q15119); test: Inhibitory action of PDHK2 activity in vitro (residual PDH activity after kinase reaction); type: biochemical; details: PDH/hPDHK2 complex, 45 min kinase reaction at room temperature; read-out: hPDHK2 IC50
T1 construct: made in house; host or cells: Escherichia coli BL21(DE3), pET17b vector
Experimental: The inhibitory action of PDHK activity was assessed indirectly by measuring the residual PDH activity after kinase reaction in the presence of a test compound.
In the case of human PDHK2 (hPDHK2, Genbank Accession No. BC040478.1), modified hPDHK2 cDNA wherein FLAG-Tag sequence was added to the N terminus of hPDHK2 cDNA clone (pReceiver-M01/PDK2-GeneCopoeia) was prepared by PCR and cloned into a vector (pET17b-Novagen). The recombinant construct was transformed into Escherichia coli (DH5α-TOYOBO). The recombinant clones were identified, and plasmid DNA was isolated and subjected to the DNA sequence analysis. One clone which had the expected nucleic acid sequence was selected for expression work.
For expression of hPDHK2 activity, Escherichia coli strain BL21(DE3) cells (Novagen) were transformed with the pET17b vector containing modified hPDHK2 cDNA. The Escherichia coli were grown to an optical density 0.6 ([…]) at 30° C. Protein expression was induced by the addition of 500 μmol/L isopropyl-β-thiogalactopyranoside. The Escherichia coli were cultured at 30° C. for 5 hr and harvested by centrifugation. Resuspension of the Escherichia coli paste was disrupted by a microfluidizer. FLAG-Tagged protein was purified using FLAG affinity gel. The gel was washed with 20 mmol/L HEPES-NaOH, 500 mmol/L sodium chloride, 1% ethylene glycol, and 0.1% Pluronic F-68 (pH 8.0), and the binding protein was eluted with 20 mmol/L HEPES-NaOH, 100 μg/mL FLAG peptide, 500 mmol/L sodium chloride, 1% ethylene glycol, and 0.1% Pluronic F-68 (pH 8.0). The eluted fractions containing FLAG-Tagged protein were pooled, dialyzed against 20 mmol/L HEPES-NaOH, 150 mmol/L sodium chloride, 0.5 mmol/L EDTA, 1% ethylene glycol, and 0.1% Pluronic F-68 (pH 8.0), and preserved at −80° C.
0.05 U/mL PDH and 0.8 μg/mL hPDHK2 were mixed in a buffer (50 mmol/L 3-morpholinopropanesulfonic acid (pH 7.0), 20 mmol/L dipotassium hydrogen phosphate, 60 mmol/L potassium chloride, 2 mmol/L magnesium chloride, 0.4 mmol/L EDTA, and 0.2% Pluronic F-68, 2 mmol/L dithiothreitol), and the mixture was incubated at 4° C. overnight to obtain a PDH/hPDHK2 complex. The test compounds were diluted with DMSO. […] DMSO (1.5 μL) was added to control wells instead of the test compound. […] The mixture was incubated at room temperature for 90 min, and the residual PDH activity was measured. The absorbance at 340 nm before and after PDH reaction was measured using a microplate reader to detect NADH produced by the PDH reaction. The hPDHK2 inhibition rate (%) of the test compound was calculated from the formula [{(PDH activity of test compound−PDH activity of control)/PDH activity of blank−PDH activity of control)}×100].

[2] = Metabolic stability test in rat liver microsome; type: in vitro ADME
[3] = Metabolic stability test in human liver microsome; type: in vitro ADME; details: 37° C., 5 μM
Experimental: Human liver microsome (manufactured by Xenotech, H0620, final concentration (after dilution), 0.2 mg protein/mL) was suspended in 100 mM potassium phosphate buffer (pH 7.4, containing β-nicotinamide adenine dinucleotide phosphate: 1.3 mM, D-glucose-6-phosphate: 3.3 mM, magnesium chloride: 3.3 mM, glucose-6-phosphate dehydrogenase: 0.45 U/mL), and further mixed with a test compound dissolved in MeCN/DMSO (95/5) (final concentration 5 μM). The mixture was incubated at 37° C. for 10 min and 60 min, acetonitrile containing formic acid (final concentration 0.1%) was added, and the mixture was centrifuged. The test compound (unmodified) in the supernatant was measured by high performance liquid chromatography/mass spectrometry (LC/MS) (manufactured by Waters, LC: Acquity UPLC, MS:SQ Detector or TQ Detector). The residual ratio (%) was calculated from the obtained measurement value.

[4] = test system: tissue PDH activity; test: Ex vivo PDH activation assay (liver and epididymal adipose tissue mitochondrial fractions after oral dosing); type: in vivo, Sprague-Dawley rats; details: 3 mg/kg, rat
Experimental: The action of test compound on tissue PDH activity was evaluated. NADH production was detected via p-iodonitrotetrazolium violet (INT)-coupled system to measure PDH activity.
Normal male Sprague-Dawley rats were randomly allocated m to the vehicle group and the test compound groups. The vehicle (0.5% aqueous methylcellulose solution, 5 mL/kg) or the test compound was orally administered to the rats. At 5 or 20 hr after administration, the rats were anesthetized with an intraperitoneal injection of sodium pentobarbital (60 mg/kg), and liver slices and epididymal adipose tissues were collected.
(§1) To the liver slices were rapidly added 9 volumes of ice-cold homogenization buffer (0.25 mol/L sucrose, 5 mmol/L tris(hydroxymethyl)aminomethane hydrochloride (pH 7.5), 2 mmol/L EDTA), and the mixtures were homogenized using a Polytron homogenizer. The homogenates were centrifuged at 600×g, 4° C. for 10 min to obtain the supernatant. The supernatants (1 mL) were centrifuged at 16,000×g, 4° C. for 10 min to collect the precipitates. The precipitates were washed by resuspension in the homogenization buffer (1 mL) and centrifuged in the same manner. The precipitates were frozen with liquid nitrogen and stored at −80° C. as the liver mitochondrial fraction.
as §1, with “adipose tissues” for “liver slices”, “3” for “9”, “of an” for “of”, “buffer,” for “buffer (0.25 mol/L sucrose, 5 mmol/L tris(hydroxymethyl)aminomethane hydrochloride (pH 7.5), 2 mmol/L EDTA),”, “supernatants” for “supernatants (1 mL)”, “adipose tissue” for “liver”
The mitochondrial fractions were thawed and suspended with the sample buffer (0.25 mol/L sucrose, 20 mmol/L tris(hydroxymethyl)aminomethane hydrochloride (pH 7.5), 50 mmol/L potassium chloride, and 1 mL/L 4-(1,1,3,3-tetramethylbutyl)phenyl-polyethylene glycol (Triton X-100)). Active PDH activity (PDHa activity) and total PDH activity (PDHt activity) were measured to evaluate the PDH activity. For the measurement of the PDHt activity, equal amounts of the mitochondrial suspension and the activation buffer (0.25 mol/L sucrose, 20 mmol/L tris(hydroxymethyl)aminomethane hydrochloride (pH 7.5), 50 mmol/L potassium chloride, 1 mL/L Triton X-100, 4 mmol/L calcium chloride, 40 mmol/L magnesium chloride, 10 mmol/L sodium dichloroacetate) were mixed, and the mixtures were incubated at 37° C. for 10 min. Forty microliters of the mitochondrial suspensions diluted with a sample buffer were added to a 96-well microplate for activity measurement and blank measurement. Then 180 μL of the reaction mixture (0.056 mmol/L potassium phosphate buffer (pH 7.5), 5.6 mmol/L DL-carnitine, 2.8 mmol/L NAD, 0.22 mmol/L thiamin pyrophosphate, 0.11 mmol/L Coenzyme A, 1.1 mL/L Triton X-100, 1.1 mmol/L magnesium chloride, 1.1 g/L bovine serum albumin, 0.67 mmol/L INT, 7.2 μmol/L phenazine methosulfate, 28 mmol/L sodium oxamate) was added to each well, and then 20 μL of 50 mmol/L sodium pyruvate for activity measurement or water for blank measurement were added. The mixtures were incubated at room temperature under shading. The absorbances at 500-750 nm, which were attributable to reduction of INT, the final electron acceptor, were measured using a microplate reader over time and the changes in the absorbance were calculated. The PDH activity was calculated by subtraction of the change in absorbance of the blank well from that of the activity measurement well. The percentage of the PDHa activity to the PDHt activity was calculated and taken as an index of the PDH activation.

[5] = target: T2, hERG current (hERG-transfected HEK293 cells) (Homo sapiens, UniProt Q12809); test: hERG whole cell patch clamp test; type: cell-based; details: whole cell patch clamp, hERG-transfected HEK293 cells
T2 construct: host or cells: HEK293
T2 sequence (Q12809 whole entry): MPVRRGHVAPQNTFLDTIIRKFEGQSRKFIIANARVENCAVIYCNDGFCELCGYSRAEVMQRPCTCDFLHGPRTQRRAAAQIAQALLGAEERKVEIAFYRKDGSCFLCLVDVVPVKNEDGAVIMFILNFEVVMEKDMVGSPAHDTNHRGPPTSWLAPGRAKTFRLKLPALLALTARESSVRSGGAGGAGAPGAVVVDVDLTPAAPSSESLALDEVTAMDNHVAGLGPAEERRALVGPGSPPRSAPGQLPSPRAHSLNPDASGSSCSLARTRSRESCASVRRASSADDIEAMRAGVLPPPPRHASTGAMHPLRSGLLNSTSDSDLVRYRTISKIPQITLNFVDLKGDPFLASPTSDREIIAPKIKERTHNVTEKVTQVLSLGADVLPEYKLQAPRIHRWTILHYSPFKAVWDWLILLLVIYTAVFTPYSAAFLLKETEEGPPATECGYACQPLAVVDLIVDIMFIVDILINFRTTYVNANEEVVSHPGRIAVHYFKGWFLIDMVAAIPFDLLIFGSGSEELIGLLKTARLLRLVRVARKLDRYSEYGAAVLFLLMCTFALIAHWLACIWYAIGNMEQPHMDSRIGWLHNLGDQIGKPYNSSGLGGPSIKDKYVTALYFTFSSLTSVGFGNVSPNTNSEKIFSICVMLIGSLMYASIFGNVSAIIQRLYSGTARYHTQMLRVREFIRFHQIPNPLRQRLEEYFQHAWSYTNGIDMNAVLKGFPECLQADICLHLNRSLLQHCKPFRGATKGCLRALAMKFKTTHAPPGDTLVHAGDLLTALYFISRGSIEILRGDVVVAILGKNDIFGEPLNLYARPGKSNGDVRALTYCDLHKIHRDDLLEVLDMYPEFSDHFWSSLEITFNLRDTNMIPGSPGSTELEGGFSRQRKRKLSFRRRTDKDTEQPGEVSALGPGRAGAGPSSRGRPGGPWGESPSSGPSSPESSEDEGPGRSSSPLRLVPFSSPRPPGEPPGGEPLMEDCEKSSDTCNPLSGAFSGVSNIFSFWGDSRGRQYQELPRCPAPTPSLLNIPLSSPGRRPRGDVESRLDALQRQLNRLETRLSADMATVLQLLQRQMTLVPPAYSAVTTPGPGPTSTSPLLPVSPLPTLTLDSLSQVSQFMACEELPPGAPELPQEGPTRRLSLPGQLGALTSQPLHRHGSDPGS
Experimental: (§2) Using human ether-a-go-go related gene (hERG)-transfected HEK293 cells (Cytomyx Limited), an influence on hERG current was examined according to the whole cell patch clamp technique. The hERG-transfected HEK293 cells were passaged using a CO2 incubator (BNA-111, TABAI ESPEC CORP.) under the set conditions of 37° C., 5% CO2, saturated humidity. Culture containers used were Collagen Type I Coated 75 cm^2 flask (4123-010, AGC TECHNO GLASS CO., Ltd.) and Collagen Type I Coated 35 mm culture dish (4000-010, AGC TECHNO GLASS CO., Ltd.). The culture medium used was E-MEM (Eagle Minimum Essential Medium (Earle's Salts, Nikken biomedical laboratory) added with 10% FCS (Fetal bovine serum, BioWest, L.L.C.) and 1% MEM Non-Essential Amino Acids Solution (NEAA, Invitrogen Corporation). Geneticin for the selection of hERG gene expressing cells was added thereto to a concentration of 400 μg/mL. As the cells for the measurement, 3×10^4 hERG-transfected HEK293 cells were plated on a 35 mm culture dish 4 to 7 days before measurement of the hERG current. The culture dish produced for the measurement contained the above-mentioned culture medium without geneticin (Invitrogen Corporation).
(§3) The highest evaluation concentration of each compound was determined from the highest concentration at which precipitation was not found in the standard extracellular fluid (NaCl: 140 mmol/L, KCl: 2.5 mmol/L, MgCl2: 2 mmol/L, CaCl2: 2 mmol/L, HEPES: 10 mmol/L, glucose: 10 mmol/L (adjusted to pH 7.4 with Tris-base)). As the application method, each solution to be applied was ejected from a Y-tube having a tip diameter of about 0.25 mm, which was adjacent (about 2 mm) to the cells, and applied to the cells. The ejection rate was about 0.4 mL/min.
(§4) The experiment was performed at room temperature under a phase contrast microscope. The 35 mm culture dish plated with the cells was set on a measurement apparatus, and the standard extracellular fluid was continuously applied to the cells from the Y-tube. A glass electrode for the measurement was filled with an intracellular fluid (Potassium Gluconate: 130 mmol/L, KCl: 20 mmol/L, MgCl2: 1 mmol/L, ATP-Mg: 5 mmol/L, EGTA: 3.5 mmol/L, HEPES: 10 mmol/L (adjusted to pH 7.2 with Tris-base)). A conventional whole cell patch clamp method was applied to the cells, and the maintenance electric potential was set to −80 mV. Under a fixed electric potential, the whole cell current was amplified by an amplifier for patch clamp (AXOPATCH-200B, Axon Instruments, Inc.), and the data was loaded into a computer (IMC-P642400, Intermedical Co., Ltd.) using a data acquisition analysis software (pCLAMP 9.2, Axon Instruments, Inc.).
(§5) The measurement of the hERG current was performed in the following two steps. In both cases, the hERG current was initiated by giving a command potential (maintenance electric potential −80 mV, prepulse+20 mV, 1.5 sec, test-pulse −50 mV, 1.5 sec).
(§6) Step (1): The above-mentioned command potential was given at 0.1 Hz for 2 min.
(§7) Step (2): The above-mentioned command potential was subjected to P/3 subtraction of pCLAMP 9.2 to remove leak current. This was repeated three times and an average thereof was taken as hERG current.
(§8) Subsequent to step (1), Step (2) was performed (about 3 min), and the maximum tail current obtained by applying a test-pulse to the hERG current obtained by the method of step (2) was taken as hERG current value. Hereafter, the operations of (1) and (2) were alternately repeated until completion of the experiment and the hERG current value was measured.
(§9) Stable hERG current value was recorded three times (about 10 min), and the standard extracellular fluid was instantaneously exchanged with each application fluid. The hERG current value was measured three times (about 10 min) in the same manner during perfusion of the application fluid, and the current value obtained by the 3rd measurement was taken as hERG current value after perfusion of the application fluid. […]

[6] = target: T3, hERG (Homo sapiens, UniProt Q12809); test: hERG whole cell patch clamp test; type: cell-based; details: human, HEK293 cells transfected with hERG, pH 7.4, read-out: hERG inhibition rate (%); for inhibition at 3 μmol/L: concentration 3 μmol/L; for inhibition at 30 μmol/L: concentration 30 μmol/L
T3 construct: host or cells: HEK293
T3 sequence (Q12809 whole entry): as above
Experimental: as §2, §3, §4, §5, §6, §7, §8, §9

IC50 [1]	stability in liver microsome (residual ratio %) ([2]; 10 min)	stability in liver microsome (residual ratio %) ([2]; 60 min)	stability in liver microsome (residual ratio %) ([3]; 10 min)	stability in liver microsome (residual ratio %) ([3]; 60 min)	Structure (SMILES)	PDHa activity (% PDHt activity) ([4]; adipose tissue, 5 hr after oral administration)	PDHa activity (% PDHt activity) ([4]; adipose tissue, 20 hr after oral administration)	PDHa activity (% PDHt activity) ([4]; liver, 5 hr after oral administration)	PDHa activity (% PDHt activity) ([4]; liver, 20 hr after oral administration)	IC50 [5]	inhibition at 3 μmol/L [6]	inhibition at 30 μmol/L [6]
4.7 nM	99.2%	99.8%	98.3%	99.7%	C[C@@H](O)COc1cc(-c2cnn(C(C)(C)C(N)=O)c2)c2c(c1)[C@@](O)(C(F)(F)F)c1ccccc1-2 [compound (3), 2-(4-{(9R)-9-hydroxy-2-[(2R)-2-hydroxypropoxy]-9-(trifluoromethyl)-9H-fluoren-4-yl}-1H-pyrazol-1-yl)-2-methylpropanamide]	59 ± 8 % PDHt activity	54 % PDHt activity	74 ± 11 % PDHt activity	42 % PDHt activity			
					CC(C)(O)COc1cc(-c2cnn(CCO)c2)c2c(c1)[C@@](O)(C(F)(F)F)c1ccccc1-2 [compound (C), (9R)-4-[1-(2-Hydroxyethyl)-1H-pyrazol-4-yl]-2-(2-hydroxy-2-methylpropoxy)-9-(trifluoromethyl)-9H-fluoren-9-ol]					13.2 µM	11.5%	69%
					CC(C)(C(N)=O)n1cc(-c2cc(F)cc3c2-c2ccccc2[C@]3(O)C(F)(F)F)cn1 [compound (D), 2-{4-[(9R)-2-Fluoro-9-hydroxy-9-(trifluoromethyl)-9H-fluoren-4-yl]-1H-pyrazol-1-yl}-2-methylpropanamide]					14.2 µM	9.4%	67.5%
